# Measured values reported in patent US8236854B2, “Lipid-improving agent and composition containing lipid-improving agent” (Suntory Holdings Limited, priority 2003, dated 2012).
# Marks after values point to notes of the source that are not given here.
# What was measured:
# Type in all cases: in vivo, rat
# [1] = system: Male rats of SD strain; test: Serum lipid lowering action of structured lipids in high-fat food, two weeks (Example 6); details: High-TG Food (20% fat) with 7.5% structured lipid, 2 weeks
# From the text: Influence of arachidonic acid chemically synthesized in Example 2 on serum lipid lowering action of the constituting fatty acid was investigated in a high-fat foods.
# Male rats of SD strain of 5 weeks age were divided into eight groups each comprising five rats, acclimatized for one week with a standard solid feed and ingested for two weeks with the experimental food as shown in Table 7 and Table 8 (normal, high-TG, 7.5% PPP, 7.5% PAP, 7.5% PPA, 7.5% 8P8, 7.5% 8A8 and 7.5% 88A). Incidentally, the condition for a high-fat food was that the rate of fat/oil in the feed was made 20%, beef tallow abundant in saturated fatty acid was used as a base and 2% of corn oil were compounded to avoid the deficiency of essential fatty acids. In the control group, an experimental food (high-TG food, 20% fat/oil food) compounded with 18% of […] (20% as a result of addition of 2% of corn oil) was used.
# [2] = system: Male rats of SD strain; test: Ingestion of experimental food with 10% structured lipid for two weeks: body weight, liver weight, serum lipid concentration (Example 5); details: 10% structured lipid in experimental food, 2 weeks
# From the text: (§1) Influence of the structured lipid where arachidonic acid chemically synthesized in Example 2 as a constituting fatty acid on expression of lipid metabolism-related gene was investigated using rats.
# (§2) Male rats of SD strain of 5 weeks age were divided into four groups each comprising five rats, acclimatized for one week with a standard solid feed and ingested for two weeks with an experimental food (10% PPA and 10% PAP; Table 5) compounded with 10% of arachidonic acid-containing structured lipid (PPA or PAP). In the control group, an experimental food (10% PPP) compounded with 10% of PPP was used. In ingestion of the food, a pair-feeding was conducted and body weight was measured every day.
# [3] = system: PPARα mRNA of liver; test: Influence of structured lipid on liver PPARα mRNA expression (Example 5); details: rats, 10% PAP food, 2 weeks
# From the text: as §1, §2
# Two molecules of palmitic acid and one molecule of 2-AG incorporated into epidermal cells of small intestine are reconstructed to a triglyceride(s) (in that case, although there is a possibility of bonding of other inherent fatty acids existing in the epidermal cells of the small intestine to 1,3-positions, arachidonic acid bonded to 2-position is retained), incorporated into chylomicron, transferred to peripheral tissues together with secretion of lymph and blood flow and finally incorporated into liver.
# [4] = system: target gene of PPAR of jejunum; test: Influence of structured lipid on expression of target gene of PPAR of jejunum (Example 5); details: rats, 10% structured lipid food, compared with PPP food control group
# From the text: as §1, §2
# Influence of structured lipid on expression of target gene of PPAR of jejunum is shown (FIG. 4). From PPA, each one molecule of palmitic acid and arachidonic acid is dissociated and absorbed by the action of pancreatic lipase specific to 1,3-positions and arachidonic acid having a particularly strong PPAR ligand activity acts as a PPARα ligand in small intestine and, therefore, expressed amount of target gene of PPAR increased in a group of 10% PPA food as compared with a PPP food group which is a control group. […]
compound,measurement,setting,value
"CCCCC/C=C\C/C=C\C/C=C\C/C=C\CCCC(=O)OC(COC(=O)CCCCCCC)COC(=O)CCCCCCC [8A8, 1,3-dioctanoyl-2-arachidonoyl glyceride]",Serum Total Cholesterol Concn,[1],85.6 ± 2.5^b μmol/dl
same,Serum Triglyceride(s) Concn,[1],63.3 ± 4.1^a μmol/dl
"CCCCCCCCCCCCCCCC(=O)OC(COC(=O)CCCCCCC)COC(=O)CCCCCCC [8P8, 1,3-capryloyl-2-palmitoyl-glyceride, reference compound]",Serum Total Cholesterol Concn,[1],99.7 ± 4.2^b μmol/dl
same,Serum Triglyceride(s) Concn,[1],101.8 ± 5.3^b μmol/dl
"CCCCC/C=C\C/C=C\C/C=C\C/C=C\CCCC(=O)OCC(COC(=O)CCCCCCC)OC(=O)CCCCCCC (centres unmarked) [88A, 1(3),2-dioctanoyl-3(1)-arachidonoyl glyceride]",Serum Total Cholesterol Concn,[1],92.9 ± 2.9^a μmol/dl
same,Serum Triglyceride(s) Concn,[1],83.1 ± 3.6^a μmol/dl
"CCCCC/C=C\C/C=C\C/C=C\C/C=C\CCCC(=O)OC(COC(=O)CCCCCCCCCCCCCCC)COC(=O)CCCCCCCCCCCCCCC [PAP, 1,3-dipalmitoyl-2-arachidonoyl glyceride]",Serum Total Cholesterol Concn,[2],178 ± 15.3^ab μmol/dl
same,Serum Triglyceride(s) Concn,[2],174 ± 7.5^b μmol/dl
same,Serum Total Cholesterol Concn,[1],91.7 ± 3.3^a μmol/dl
same,Serum Triglyceride(s) Concn,[1],80.4 ± 3.9^a μmol/dl
same,Expressed amount of PPARα mRNA of liver,[3],significantly increased
"CCCCC/C=C\C/C=C\C/C=C\C/C=C\CCCC(=O)OCC(COC(=O)CCCCCCCCCCCCCCC)OC(=O)CCCCCCCCCCCCCCC (centres unmarked) [PPA, 1(3),2-dipalmitoyl-3(1)-arachidonoyl glyceride]",Serum Total Cholesterol Concn,[2],150 ± 16.6^b μmol/dl
same,Serum Triglyceride(s) Concn,[2],173 ± 6.6^b μmol/dl
same,Expressed amount of target gene of PPAR in jejunum,[4],increased
same,Serum Total Cholesterol Concn,[1],92.4 ± 4.9^a μmol/dl
same,Serum Triglyceride(s) Concn,[1],93.1 ± 1.3^a μmol/dl
"CCCCCCCCCCCCCCCC(=O)OCC(COC(=O)CCCCCCCCCCCCCCC)OC(=O)CCCCCCCCCCCCCCC [PPP, reference compound]",Serum Total Cholesterol Concn,[2],201 ± 9.2^a μmol/dl
same,Serum Triglyceride(s) Concn,[2],316 ± 64.3^b μmol/dl
same,Serum Total Cholesterol Concn,[1],104.3 ± 5.9^b μmol/dl
same,Serum Triglyceride(s) Concn,[1],109.2 ± 6.8^b μmol/dl
